Experimental data reported in patent US8163909B2, “Substituted hydroxyethyl amine compounds as beta-secretase modulators and methods of use” (Amgen Inc., priority 2007, dated 2012).
Where two headings read alike, the source gives them in different places.

What was measured:
[1] = Microsomal stability assay, human liver microsomes;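 further: pooled human liver microsomes at 0.25 mg/mL with 1 µM compound and NADPH at 37 °C, pH 7.4, for 30 min, unchanged parent quantified by LC-MS/MS against the 0 min sample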
CYP3A4 (CYP3A) = CYP3A4 (CYP3A) (Homo sapiens, UniProt P08684); assay: in vitro; conditions: microsomes, pH 7.4;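 further: inhibition of CYP3A-mediated 1-hydroxymidazolam formation after 10 min incubation with NADPH, quantified by HPLC MS relative to metabolite produced without test compound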
Chain of CYP3A4 (CYP3A) (P08684 2-503): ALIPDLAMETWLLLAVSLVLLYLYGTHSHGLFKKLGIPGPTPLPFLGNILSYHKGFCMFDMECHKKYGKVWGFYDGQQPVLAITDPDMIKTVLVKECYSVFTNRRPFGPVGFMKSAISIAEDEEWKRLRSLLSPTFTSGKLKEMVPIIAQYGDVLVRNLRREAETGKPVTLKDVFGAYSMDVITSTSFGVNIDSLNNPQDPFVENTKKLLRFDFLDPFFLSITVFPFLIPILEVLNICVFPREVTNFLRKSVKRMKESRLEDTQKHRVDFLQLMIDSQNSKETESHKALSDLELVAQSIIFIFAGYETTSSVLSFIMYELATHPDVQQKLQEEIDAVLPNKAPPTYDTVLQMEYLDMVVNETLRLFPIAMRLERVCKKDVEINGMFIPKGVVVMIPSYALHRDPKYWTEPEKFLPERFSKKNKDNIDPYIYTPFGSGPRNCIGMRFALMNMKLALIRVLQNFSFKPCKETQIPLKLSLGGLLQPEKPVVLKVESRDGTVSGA

CYP2D6 = CYP2D6 (Homo sapiens, UniProt P10635); assay: CYP2D6 inhibition assay (bufuralol, pooled human liver microsomes)
Chain of CYP2D6 (P10635 whole entry): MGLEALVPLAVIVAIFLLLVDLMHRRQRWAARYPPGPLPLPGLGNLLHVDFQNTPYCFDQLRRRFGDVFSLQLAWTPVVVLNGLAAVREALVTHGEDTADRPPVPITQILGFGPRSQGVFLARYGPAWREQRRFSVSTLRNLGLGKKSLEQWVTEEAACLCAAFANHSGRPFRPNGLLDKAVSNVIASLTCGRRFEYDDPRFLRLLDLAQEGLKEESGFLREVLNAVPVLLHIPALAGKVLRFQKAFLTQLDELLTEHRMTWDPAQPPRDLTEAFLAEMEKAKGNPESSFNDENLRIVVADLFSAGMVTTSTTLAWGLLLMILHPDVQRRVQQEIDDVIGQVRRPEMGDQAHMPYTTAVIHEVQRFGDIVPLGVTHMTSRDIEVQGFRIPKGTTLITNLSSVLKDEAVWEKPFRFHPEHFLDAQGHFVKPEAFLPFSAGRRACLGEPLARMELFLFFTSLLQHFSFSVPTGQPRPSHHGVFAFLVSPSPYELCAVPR

[2] = Microsomal stability assay, rat liver microsomes;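 further: rat liver microsomes (0.25 mg/mL) with about 1 µM compound plus 1 mM NADPH, pH 7.4, 37 °C for 30 min, parent left measured by LC-MS/MS against 0 min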
[3] = tested on: Aβ40 in conditioned medium of cells stably expressing Amyloid Precursor Protein (APP); assay: In vitro BACE cell-based assay (Aβ40 in conditioned medium, sandwich ELISA); conditions: Homo sapiens;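 further: compounds added as a dilution series, secreted peptide quantified by europium time-resolved fluorescence readout, potency fitted from percent of control versus compound concentration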
[4] = biological target: Beta Secretase enzyme (BACE) (Homo sapiens, UniProt P56817); assay: In vitro enzymatic BACE FRET (fluorescence resonance energy transfer) assay; type: biochemical;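 further: fluorescence read after 1 h with 50 nM quenched peptide substrate spanning the BACE cleavage site, in pH 4.2 acetate buffer containing 10% DMSO and nonionic detergent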
Chain of Beta Secretase enzyme (BACE) (P56817 46-501): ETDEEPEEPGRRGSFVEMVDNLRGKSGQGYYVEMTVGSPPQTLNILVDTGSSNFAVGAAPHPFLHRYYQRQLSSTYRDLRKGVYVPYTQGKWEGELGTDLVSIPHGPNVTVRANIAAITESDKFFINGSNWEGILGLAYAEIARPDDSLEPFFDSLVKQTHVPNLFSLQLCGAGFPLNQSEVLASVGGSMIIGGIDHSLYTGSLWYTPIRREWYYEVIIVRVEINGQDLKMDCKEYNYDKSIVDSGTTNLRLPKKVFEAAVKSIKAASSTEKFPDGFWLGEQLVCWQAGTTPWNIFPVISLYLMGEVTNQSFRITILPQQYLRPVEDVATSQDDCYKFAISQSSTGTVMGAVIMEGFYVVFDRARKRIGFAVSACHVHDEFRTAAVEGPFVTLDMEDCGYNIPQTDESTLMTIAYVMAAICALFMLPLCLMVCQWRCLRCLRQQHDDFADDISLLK

[5] = 2D6 IC50 (uM), CYP2D6 inhibition
[6] = HEK293, HEK cell-based assay IC50, read-out: HEK cell assay
[7] = BACE enzyme assay IC50, read-out: BACE1 FRET assay
[8] = 2D6 IC50, CYP enzyme inhibition
[9] = HEK293, HEK cells, read-out: HEK cell assay (IC50)
[10] = read-out: BACE1 FRET assay (IC50)
[11] = 2D6 IC50 (uM), CYP enzyme inhibition
[12] = HEK293, HEK cells, read-out: HEK cell assay
[13] = BACE enzyme assay, read-out: BACE1 FRET assay
[14] = HEK293, HEK cell-based assay, IC50's in uM, read-out: HEK cell assay
[15] = BACE enzyme assay, IC50's in uM, read-out: BACE1 FRET assay
[16] = HEK293, cell-based assay, HEK cells, IC50's in uM, read-out: HEK cell assay
[17] = HEK293, Table 2, HEK cells, read-out: HEK cell assay
[18] = Table 2, read-out: BACE1 FRET assay

Row | Compound | IC50 (CYP3A4 (CYP3A)) [nM] | RLM ([2]; rat liver microsomes) [µL/min/mg] | HLM ([1]; human liver microsomal data) [µL/min/mg] | IC50 (CYP2D6; [8]) [µM] | RLM ([2]; rat liver microsomal data) [µL/min/mg] | further results
1 | CO[C@H](C)C(=O)N[C@@H](Cc1cc(F)cc(-c2nccs2)c1)[C@H](O)CN[C@H]1CC2(CCC2)Oc2ncc(CC(C)(C)F)cc21 [compound 742] | 700 | 42 | – | – | – | HLM ([1]; human liver microsomes): 39.5 µL/min/mg; IC50 (CYP2D6; [5]): 0.95 µM; IC50 [3, 6]: 0.045 µM; IC50 [4, 7]: 0.084 µM
2 | CC1(C)C[C@H]1c1cnc2c(c1)[C@@H](NC[C@@H](O)[C@H](Cc1cccc(-c3nccs3)c1)NC(=O)[C@@H]1CCCO1)CC1(CCC1)O2 [compound 907] | 100 | – | 77 | 0.5 | 78 | –
3 | CC(=O)N[C@@H](Cc1cccc(-c2ccncc2)c1)[C@H](O)CN[C@H]1CC2(CCC2)Oc2ncc(CC(C)(C)C)cc21 [compound 616, N-((1S,2R)-3-(((4′S)-6′-(2,2-dimethylpropyl)-3′,4′-dihydrospiro[cyclobutane-1,2′-pyrano[2,3-b]pyridin]-4′-yl)amino)-2-hydroxy-1-(3-(4-pyridinyl)benzyl)propyl)acetamide] | 160 | 96 | – | – | – | HLM ([1]; human liver microsomes): 228 µL/min/mg; IC50 (CYP2D6; 2D6 IC50, CYP2D6 inhibition): 0.3 µM; IC50 [3, 9]: 0.01 µM; IC50 [4, 10]: 0.017 µM
4 | CO[C@H](C)C(=O)N[C@@H](Cc1ccccc1)[C@H](O)CN[C@H]1CC2(CCC2)Oc2c1cc(CC(C)(C)C)nc2-c1ccncc1 [compound 543] | 100 | – | 41 | – | 242 | IC50 (CYP2D6; [11]): 2.6 µM; IC50 [3, 12]: 0.255 µM; IC50 [4, 13]: 0.037 µM
5 | C#Cc1cccc(C[C@H](NC(=O)COC)[C@H](O)CN[C@H]2CC3(CCC3)Oc3ncc(CC)cc32)c1 [compound 842] | 200 | – | 55 | – | 57 | IC50 (CYP2D6; [11]): 4.9 µM; IC50 [3, 14]: 0.065 µM; IC50 [4, 15]: 0.026 µM
6 | CC(=O)N[C@@H](Cc1ccc(F)c(-n2ccnc2)c1)[C@H](O)CN[C@H]1CC2(CCC2)Oc2ncc(CC(C)(C)C)cc21 [Example 426, N-((1S,2R)-3-(((4′S)-6′-(2,2-dimethylpropyl)-3′,4′-dihydrospiro[cyclobutane-1,2′-pyrano[2,3-b]pyridin]-4′-yl)amino)-1-(4-fluoro-3-(1H-imidazol-1-yl)benzyl)-2-hydroxypropyl)acetamide] | ≤ 30 | 14 | – | – | – | HLM ([1]; human liver microsomes): 22 µL/min/mg; IC50 (CYP2D6; [5]): 0.1 µM; IC50 [3, 6]: 0.011 µM; IC50 [4, 7]: 0.031 µM
7 | CO[C@H](C)C(=O)N[C@@H](Cc1cccc(F)c1)[C@H](O)CN[C@H]1CC2(CCC2)Oc2c1cc(CC(C)(C)C)nc2-n1ccnc1 [compound 507] | 100 | – | 14 | – | 95 | IC50 (CYP2D6; [11]): 1.9 µM; IC50 [3, 12]: 0.057 µM; IC50 [4, 13]: 0.022 µM
8 | CCCc1cnc2c(c1)[C@@H](NC[C@H](O)[C@@H](Cc1cc(F)cc(-c3nccs3)c1)NC(=O)COC)CC1(CCC1)O2 [compound 833] | 300 | – | 219 | – | 189 | IC50 (CYP2D6; [11]): 0.9 µM; IC50 [3, 14]: 2.28 µM
9 | CCCc1cnc2c(c1)[C@@H](NC[C@H](O)[C@@H](Cc1cc(F)cc(-c3nccs3)c1)NC(=O)[C@@H](C)OC)CC1(CCC1)O2 [compound 815] | 200 | – | 204 | – | 276 | IC50 (CYP2D6; [11]): 0.6 µM
10 | CC(=O)N[C@@H](Cc1cc(F)cc(F)c1)[C@H](O)CN[C@H]1CC2(CCC2)Oc2c1cc(CC(C)(C)C)nc2Nc1ccccc1 [compound 598] | 6900 | 102 | – | – | – | IC50 (CYP2D6; 2D6 IC50, CYP2D6 inhibition): ≥ 27 µM; IC50 [3, 9]: 0.26 µM; IC50 [4, 10]: 0.023 µM
11 | C#Cc1ccc(C[C@H](NC(=O)[C@@H](C)OC)[C@H](O)CN[C@H]2CC3(CCC3)Oc3ncc(CC(C)(C)C)cc32)cc1 [compound 884] | 100 | – | – | 3.8 | 55 | IC50 [3, 16]: 0.097 µM; IC50 [4, 15]: 0.251 µM
12 | COCC(=O)N[C@@H](Cc1ccc(F)cc1)[C@H](O)CN[C@@H]1CC2(CCC2)Oc2c1cc(CC(C)(C)C)nc2-n1ccnc1 [compound 449] | 100 | – | – | 0.8 | 163 | IC50 [3, 17]: 2.97 µM; IC50 [4, 18]: 2.9 µM
13 | CO[C@H](C)C(=O)N[C@@H](Cc1cccc(-c2nccs2)c1)[C@H](O)CN[C@H]1CC2(CCC2)Oc2ncc([C@@H]3CC3(C)C)cc21 [compound 905] | 200 | – | 60 | 0.9 | 71 | –
14 | CO[C@H](C)C(=O)N[C@H](Cc1cc(F)cc(-c2nccs2)c1)[C@@H](O)CN[C@H]1CC2(CCC2)Oc2ncc(Br)cc21 [compound 821] | 300 | – | 162 | – | 243 | IC50 (CYP2D6; [11]): 0.5 µM; IC50 [3, 14]: 0.558 µM
15 | COCC(=O)N[C@@H](Cc1cccc(F)c1)[C@H](O)CN[C@H]1CC2(CCC2)Oc2c(-c3ccncc3)cc(CC(C)(C)Cl)cc21 [compound 536] | ≥ 27000 | – | – | – | – | IC50 (CYP2D6; [11]): ≥ 27 µM; IC50 [3, 12]: 0.011 µM; IC50 [4, 13]: 0.019 µM
16 | CC1(C)C[C@H]1c1cnc2c(c1)[C@@H](NC[C@@H](O)[C@H](Cc1cccc(-c3nccs3)c1)NC(=O)[C@H]1CCCO1)CC1(CCC1)O2 [compound 906] | 100 | – | 94 | 0.4 | 63 | –
17 | COCC(=O)N[C@@H](Cc1ccc(F)cc1)[C@H](O)CN[C@H]1CC2(CCC2)Oc2c1cc(CC(C)(C)C)nc2-n1ccnc1 [compound 448] | 100 | – | – | 1.8 | 79 | IC50 [3, 17]: 0.153 µM; IC50 [4, 18]: 0.106 µM
18 | COCC(=O)N[C@@H](Cc1ccc2c(c1)OCO2)[C@@H](CN[C@H]1CC2(CCC2)Oc2ncc([C@H](F)C(C)(C)C)cc21)OC [compound 447] | 14000 | – | – | 14 | – | IC50 [3, 17]: 3.99 µM; IC50 [4, 18]: 2.64 µM
19 | CC(=O)N[C@@H](Cc1cccc(F)c1)[C@H](O)CN[C@H]1CC2(CCC2)Oc2c(-c3ccncc3)cc(CC(C)(C)C)cc21 [compound 592] | – | 73 | – | – | – | HLM ([1]; human liver microsomes): 14 µL/min/mg; IC50 (CYP2D6; 2D6 IC50, CYP2D6 inhibition): 1.7 µM; IC50 [3, 9]: 0.004 µM; IC50 [4, 10]: 0.01 µM
20 | CC(C)Cc1cnc2c(c1)[C@@H](NC[C@H](O)[C@@H](Cc1cccc(-c3nccs3)c1)NC(=O)[C@@H]1CCCO1)CC1(CCC1)O2 [compound 796] | 200 | – | 126 | – | 58 | IC50 (CYP2D6; [11]): 0.6 µM; IC50 [3, 14]: 0.663 µM
21 | CC(C)(C)Cc1cnc2c(c1)[C@@H](NC[C@@H](O)[C@H](Cc1ccc3c(c1)OCO3)NC(=O)C(C)(C)C)CC1(CCC1)O2 [compound 882] | – | – | 40 | 0.5 | 103 | IC50 [3, 16]: 2.58 µM; IC50 [4, 15]: 6.25 µM
22 | CC(=O)N[C@@H](Cc1cc(F)cc(F)c1)[C@H](O)CN[C@H]1CC2(CCC2)Oc2c1cc(C1CC1)cc2-n1ccnc1 [compound 705] | – | 36 | – | – | – | HLM ([1]; human liver microsomes): 51 µL/min/mg; IC50 (CYP2D6; [5]): 0.6 µM; IC50 [3, 6]: 0.013 µM; IC50 [4, 7]: 0.032 µM
23 | COCC(=O)N[C@@H](Cc1cc(F)cc(-c2nccs2)c1)[C@H](O)CN[C@]1(C)CC2(CCC2)Oc2ncc(CC(C)(C)C)cc21 [compound 867] | – | – | 66 | 0.7 | 119 | IC50 [3, 16]: 1.15 µM; IC50 [4, 15]: 1.21 µM
24 | COCC(=O)N[C@@H](Cc1ccc(F)cc1)[C@H](O)CN[C@H]1CC2(CCNC2)Oc2cnc(CC(C)(C)C)cc21 (stereo partly shown) [compound 696] | 2900 | 44 | – | – | – | HLM ([1]; human liver microsomes): 32 µL/min/mg; IC50 (CYP2D6; [5]): ≥ 27 µM; IC50 [3, 6]: 0.778 µM
25 | COCC(=O)N[C@@H](Cc1cccc(C(C)=O)c1)[C@H](O)CN[C@H]1CC2(CCC2)Oc2ncc(CC(C)(C)C)cc21 [compound 872] | – | – | 382 | 5.7 | 278 | IC50 [3, 16]: 0.009 µM; IC50 [4, 15]: 0.007 µM
26 | CC(C)(C)Cc1cnc2c(c1)[C@@H](NC[C@@H](O)[C@H](Cc1cccc(C#N)c1)NC(=O)c1ncccc1F)CC1(CC(F)(F)C1)O2 [compound 473] | 600 | – | – | 2.4 | 775 | IC50 [3, 17]: 0.063 µM; IC50 [4, 18]: 0.009 µM
27 | CC(=O)N[C@@H](Cc1cccc(-n2ccnc2)c1)[C@H](O)CN[C@H]1CC2(CCC2)Oc2ccc(CC(C)(C)C)cc21 [compound 659] | – | 413 | – | – | – | HLM ([1]; human liver microsomes): 706 µL/min/mg; IC50 (CYP2D6; 2D6 IC50, CYP2D6 inhibition): 0.2 µM; IC50 [3, 9]: 0.024 µM; IC50 [4, 10]: 0.076 µM
28 | COC(OC)C(=O)N[C@@H](Cc1ccc(F)cc1)[C@H](O)CN[C@H]1CC2(CCC2)Oc2ncc(CC(C)(C)C)cc21 [compound 591] | 600 | 375 | – | – | – | IC50 (CYP2D6; 2D6 IC50, CYP2D6 inhibition): 10.3 µM; IC50 [3, 9]: 0.018 µM; IC50 [4, 10]: 0.01 µM
29 | CO[C@H](C)C(=O)N[C@@H](Cc1cc(F)cc(F)c1)[C@H](O)CN[C@H]1CC2(CCC2)Oc2c1cc(CC(C)(C)C)nc2-c1ccncc1 [compound 583] | – | 80 | – | – | – | HLM ([1]; human liver microsomes): 14 µL/min/mg; IC50 (CYP2D6; 2D6 IC50, CYP2D6 inhibition): 1.2 µM; IC50 [3, 9]: 0.03 µM; IC50 [4, 10]: 0.015 µM
